From patent publication US8324390B2, “Tetrazole-substituted anthranilamides as pesticides” (Bayer CropScience AG, priority 2008, dated 2012)
Like-named read-outs stand apart in the source and are kept apart here.

How the values were obtained:
[1] = system: caterpillars of the armyworm (Spodoptera frugiperda); test: Spodoptera frugiperda test (SPODFR spray treatment); assay type: in vivo; settings: Spodoptera frugiperda, foliar, read-out: effect in % (caterpillars killed)
Description: Solvent: 78.0 parts by weight of acetone

[2] = system: larvae of the mustard beetle (Phaedon cochleariae); test: Phaedon test (PHAECO spray treatment); settings: Phaedon cochleariae, in Brassica rapa, foliar, read-out: effect in % (beetle larvae killed)
[3] = log P determination by HPLC (EEC Directive 79/831 Annex V.A8); assay type: physicochemical
Experimental: The measurements were carried out using an Agilent 1100 LC system with a 50*4.6 Zorbax Eclipse C18 1.8 μm column (oven temperature 55° C., flow rate 2.0 ml/min).
The following mobile phases were used:
Mobile phase A: acetonitrile+1000 μl of formic acid/l
Mobile phase B: Millipore water+900 μl of formic acid/l

[4] = application rate 100 g/ha, maize leaf discs
[5] = reversed-phase HPLC, Zorbax Eclipse C18 column, by HPLC according to EEC Directive 79/831 Annex V.A8, read-out: log P

Cc1cc(Cl)cc(C(=O)NC(C)C2CC2)c1NC(=O)c1cc(Cn2nnc(C(F)F)n2)nn1-c1ncccc1Cl (stereo not drawn) [Example 256]
pest or weed control at 100 g/ha ([1]; in Zea mays): ≥ 80% | pest or weed control at 100 g/ha [2]: ≥ 80% | chromatographic logP ([3]; log P): 3.24

Cc1cc(C#N)cc(C(=O)NC(C)C)c1NC(=O)c1cc(Cn2nnc(C(F)(C(F)(F)F)C(F)(F)F)n2)nn1-c1ncccc1Cl [Example 370]
pest or weed control at 100 g/ha [1, 4]: ≥ 80% | pest or weed control at 100 g/ha [2]: ≥ 80% | chromatographic logP [3, 5]: 3.79

Cc1cc(I)cc(C(=O)NC2CC2)c1NC(=O)c1cc(Cn2nnc(C(F)(F)F)n2)nn1-c1ncccc1Cl [Example 69]
pest or weed control at 100 g/ha ([1]; in Zea mays): ≥ 80% | pest or weed control at 100 g/ha [2]: ≥ 80% | chromatographic logP ([3]; log P): 3.46

Cc1cc(Cl)cc(C(=O)NC2CCC2)c1NC(=O)c1cc(Cn2nnc(C(F)(F)F)n2)nn1-c1ncccc1Cl [Example 49]
pest or weed control at 100 g/ha ([1]; in Zea mays): ≥ 80% | pest or weed control at 100 g/ha [2]: ≥ 80% | chromatographic logP ([3]; log P): 3.6

CNC(=O)c1cc(Cl)cc(C)c1NC(=O)c1cc(Cn2nnc(C(F)(C(F)(F)F)C(F)(F)F)n2)nn1-c1ncccc1Cl [Example 357]
pest or weed control at 100 g/ha ([1]; in Zea mays): ≥ 80% | pest or weed control at 100 g/ha [2]: ≥ 80% | chromatographic logP ([3]; log P): 3.72

CNC(=O)c1cc(I)cc(C)c1NC(=O)c1cc(Cn2nnc(C(F)(F)F)n2)nn1-c1ncccc1C(F)(F)F [Example 247]
pest or weed control at 100 g/ha [1, 4]: ≥ 80% | pest or weed control at 100 g/ha [2]: ≥ 80% | chromatographic logP [3, 5]: 3.4

CSC[C@H](C)NC(=O)c1cc(Cl)cc(C)c1NC(=O)c1cc(Cn2nnc(C(F)(F)C(F)(F)F)n2)nn1-c1ncccc1Cl [Example 212]
pest or weed control at 100 g/ha ([1]; in Zea mays): ≥ 80% | pest or weed control at 100 g/ha [2]: ≥ 80% | chromatographic logP ([3]; log P): 4.09

Cc1cc(C#N)cc(C(=O)NC(C)(C)C)c1NC(=O)c1cc(Cn2nnc(C(F)(F)F)n2)nn1-c1ncccc1C(F)(F)F [Example 232]
pest or weed control at 100 g/ha [1, 4]: ≥ 80% | pest or weed control at 100 g/ha [2]: ≥ 80% | chromatographic logP [3, 5]: 3.59

Cc1cc(I)cc(C(=O)NC2CC2)c1NC(=O)c1cc(Cn2nnc(C(F)(F)F)n2)nn1-c1ncccc1Br [Example 350]
pest or weed control at 100 g/ha [1, 4]: ≥ 80% | pest or weed control at 100 g/ha [2]: ≥ 80% | chromatographic logP [3, 5]: 3.45

Cc1cc(Cl)cc(C(=O)NCC2CC2)c1NC(=O)c1cc(Cn2nnc(C(F)(C(F)(F)F)C(F)(F)F)n2)nn1-c1ncccc1Cl [Example 359]
pest or weed control at 100 g/ha [1, 4]: ≥ 80% | pest or weed control at 100 g/ha [2]: ≥ 80% | chromatographic logP [3, 5]: 4.26

Cc1cc(C#N)cc(C(=O)NC(C)C)c1NC(=O)c1cc(Cn2nnnc2C(F)(F)F)nn1-c1ncccc1Br [Example 482]
pest or weed control at 100 g/ha [1, 4]: ≥ 80% | pest or weed control at 100 g/ha [2]: ≥ 80% | chromatographic logP ([3]; reversed-phase HPLC, Zorbax Eclipse C18 column, determined by HPLC according to EEC Directive 79/831 Annex V.A8, read-out: log P): 2.74

C#CCNC(=O)c1cc(C#N)cc(C)c1NC(=O)c1cc(Cn2nnnc2C(F)(F)F)nn1-c1ncccc1Cl [Example 187]
pest or weed control at 100 g/ha ([1]; in Zea mays): ≥ 80% | pest or weed control at 100 g/ha [2]: ≥ 80% | chromatographic logP ([3]; log P): 2.48

Cc1cc(Cl)cc(C(=O)NC2CC2)c1NC(=O)c1cc(Cn2nnc(C(F)F)n2)nn1-c1ncccc1Cl [Example 230]
pest or weed control at 100 g/ha ([1]; in Zea mays): ≥ 80% | pest or weed control at 100 g/ha [2]: ≥ 80% | chromatographic logP ([3]; log P): 2.72

CC(NC(=O)c1cc(Cl)cc(Cl)c1NC(=O)c1cc(Cn2nnc(C(F)(C(F)(F)F)C(F)(F)F)n2)nn1-c1ncccc1Cl)C1CC1 (stereo not drawn) [Example 387]
pest or weed control at 100 g/ha [1, 4]: ≥ 80% | pest or weed control at 100 g/ha [2]: ≥ 80% | chromatographic logP [3, 5]: 4.42

Cc1cc(Cl)cc(C(=O)NC(C)C)c1NC(=O)c1cc(Cn2nnc(C(F)(F)C(F)(F)C(F)(F)F)n2)nn1-c1ncccc1Cl [Example 1, 2-(3-chloropyridin-2-yl)-5-(5-heptafluoropropyltetrazol-2-ylmethyl)-2H-pyrazole-3-carboxylic acid (4-chloro-2-isopropylcarbamoyl-6-methylphenyl)amide]
pest or weed control at 100 g/ha ([1]; in Zea mays): ≥ 80% | pest or weed control at 100 g/ha [2]: ≥ 80% | chromatographic logP ([3]; HPLC, acetonitrile/water with formic acid, read-out: log P): 4.23

CC(C)(C)NC(=O)c1cc(Cl)cc(Cl)c1NC(=O)c1cc(Cn2nnc(C(F)F)n2)nn1-c1ncccc1Cl [Example 287]
pest or weed control at 100 g/ha ([1]; in Zea mays): ≥ 80% | pest or weed control at 100 g/ha [2]: ≥ 80% | chromatographic logP ([3]; log P): 3.28
